Values of other authors in US20130116279A1, “BICYCLIC HETEROARYL INHIBITORS OF PDE4” (KALYPSYS, INC., priority 2011, published 2013).

System: recombinant human PDE4
Settings: inhibiting recombinant human PDE4, reported

IC50: ~200 nM
Structure (SMILES): COc1ccc(C2CNC(=O)C2)cc1OC1CCCC1 (stereo not shown) [rolipram]
